Measured values published in patent EP4596561A1, “PHOSPHORUS-CONTAINING COMPOUND, PHARMACEUTICAL COMPOSITION AND USE THEREOF” (Suzhou Genhouse Bio Co., Ltd., priority 2022, dated 2024).

Legend:
[1] = target: T1, Cytochrome Oxidase P450 3A4-M (Homo sapiens, UniProt P08684); experiment: Inhibition of cytochrome oxidase P450; assay type: in vitro ADME; conditions: liver microsomes
T1 construct: a biochemical reaction of prepared liver microsomes supplemented with a redox coenzyme; from tissue; host or cells: liver microsomes
Description: (§1) Efficacy Experimental Example 5: Inhibition of Cytochrome Oxidase P450
(§2) 100 mM K-Buffer: 9.5 mL of stock solution A was mixed with 40.5 mL of stock solution B, the total volume was adjusted to […] with ultrapure water, and the buffer was titrated to pH 7.4 with KOH or H3PO4.
(§3) The test substance powder was prepared into a stock solution at a certain concentration with DMSO or another organic solvent, which was then further diluted with a suitable organic solvent.
(§4) The liver microsomal in vitro incubation system for the CYP450 enzyme metabolism phenotype study was a biochemical reaction of prepared liver microsomes supplemented with a redox coenzyme and an enzyme-specific selective inhibitor under simulated physiological temperature and environment conditions.
(§5) The concentration of the parent drug or a metabolite thereof in the incubation solution was determined by LC-MS/MS.

[2] = target: T2, Cytochrome Oxidase P450 2D6 (Homo sapiens, UniProt P10635); experiment: Inhibition of cytochrome oxidase P450; assay type: in vitro ADME; conditions: liver microsomes
T2 construct: a biochemical reaction of prepared liver microsomes supplemented with a redox coenzyme; from tissue; host or cells: liver microsomes
Description: as §1, §2, §3, §4, §5

[3] = target: T3, Cytochrome Oxidase P450 2C9 (Homo sapiens, UniProt P11712); experiment: Inhibition of cytochrome oxidase P450; assay type: in vitro ADME; conditions: liver microsomes
T3 construct: a biochemical reaction of prepared liver microsomes supplemented with a redox coenzyme; from tissue; host or cells: liver microsomes
Description: as §1, §2, §3, §4, §5

[4] = target: T4, Cytochrome Oxidase P450 1A2 (Homo sapiens, UniProt P05177); experiment: Inhibition of cytochrome oxidase P450; assay type: in vitro ADME; conditions: liver microsomes
T4 construct: a biochemical reaction of prepared liver microsomes supplemented with a redox coenzyme; from tissue; host or cells: liver microsomes
T4 sequence (P05177 1-516): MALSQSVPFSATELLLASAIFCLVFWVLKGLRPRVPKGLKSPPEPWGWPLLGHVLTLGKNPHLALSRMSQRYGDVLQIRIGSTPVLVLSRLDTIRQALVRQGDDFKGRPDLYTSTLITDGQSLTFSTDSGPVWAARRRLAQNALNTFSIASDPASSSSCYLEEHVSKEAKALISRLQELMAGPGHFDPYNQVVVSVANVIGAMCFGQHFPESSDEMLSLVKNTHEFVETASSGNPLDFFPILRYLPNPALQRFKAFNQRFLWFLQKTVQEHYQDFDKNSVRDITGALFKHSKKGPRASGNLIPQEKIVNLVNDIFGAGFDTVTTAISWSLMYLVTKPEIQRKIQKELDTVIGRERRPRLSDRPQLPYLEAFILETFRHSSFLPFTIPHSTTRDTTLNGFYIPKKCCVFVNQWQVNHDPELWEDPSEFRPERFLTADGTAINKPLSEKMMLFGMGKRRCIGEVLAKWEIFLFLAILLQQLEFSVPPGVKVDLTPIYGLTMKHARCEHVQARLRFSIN
Description: as §1, §2, §3, §4, §5

[5] = test system: NCI-H2452 (NF2 wide-type); experiment: Inhibition of cell proliferation (CellTiter-Lumi); assay type: cell-based; conditions: Homo sapiens, 72 h + another 72 h treatment
NCI-H28 (NF2 wide-type) = experiment: Inhibition of cell proliferation (CellTiter-Lumi); assay type: cell-based; conditions: Homo sapiens, 72 h + another 72 h treatment
[6] = test system: MSTO-211H (NF2 wide-type); experiment: Inhibition of cell proliferation (CellTiter-Lumi); assay type: cell-based; conditions: Homo sapiens, 72 h + another 72 h treatment
Description: NCI-H2052 (NF2 mutant), NCI-H226 (NF2 mutant), NCI-H2452 (NF2 wide-type), NCI-H28 (NF2 wide-type), and MSTO-211H (NF2 wide-type) cells were cultured in RPMI 1640 complete media.
The normally growing cells described above were digested with a trypsin cell-digesting solution, centrifuged, counted, and then plated in a 96-well plate at a density of 1000 cells per well. Administration was performed 24 h after the cell plating. Inhibitors at different concentration gradients were added at 10 µL per well, and three replicate wells were set for each concentration point. The starting concentration was 20 µM and diluted 8 times with a 4-fold gradient. A corresponding negative control group treated with 0.1% DMSO was also set up. After 72 h of drug treatment, the cell culture plate to be tested was taken out of the incubator. The culture medium in the 96-well plate was pipetted, and 190 µL of fresh RPMI 1640 complete medium was added. Another administration was performed, and the cells were cultured for another 72 h. The 96-well plate was taken out and allowed to equilibrate at room temperature for 10 min. The medium in the 96-well plate was pipetted, and 200 µL of CellTiter-Lumi™ luminescent cell viability detection solution (mixed with a medium in a ratio of 1:1) was added. After shaking for two minutes, the mixture was reacted at room temperature for 10 min. Then, 150 µL of liquid was pipetted from the transparent 96-well plate and transferred to a white 96-well plate for chemiluminescence reading. The background value was subtracted from the value for each well to calculate the cell survival rate. Survival rate (%) = […]. Sample is the chemiluminescence of the drug-treated group, and Vehicle is the […] of the DMSO control group. A sigmoidal dose-survival rate curve was plotted using a non-linear regression model in the GraphPad Prism 7.0 software, and the IC50 values or GI50 values were calculated.

in vivo = conditions: mouse, plasma, po
Description: After adding 5% DMSO, the mixture was vortexed. 15% HS15 was then added, and the mixture was vortexed again. Finally, a 10% aqueous cyclodextrin solution was added, and the resulting mixture was vortexed to prepare the final concentration solution or suspension.

T2 sequence (P10635 whole entry): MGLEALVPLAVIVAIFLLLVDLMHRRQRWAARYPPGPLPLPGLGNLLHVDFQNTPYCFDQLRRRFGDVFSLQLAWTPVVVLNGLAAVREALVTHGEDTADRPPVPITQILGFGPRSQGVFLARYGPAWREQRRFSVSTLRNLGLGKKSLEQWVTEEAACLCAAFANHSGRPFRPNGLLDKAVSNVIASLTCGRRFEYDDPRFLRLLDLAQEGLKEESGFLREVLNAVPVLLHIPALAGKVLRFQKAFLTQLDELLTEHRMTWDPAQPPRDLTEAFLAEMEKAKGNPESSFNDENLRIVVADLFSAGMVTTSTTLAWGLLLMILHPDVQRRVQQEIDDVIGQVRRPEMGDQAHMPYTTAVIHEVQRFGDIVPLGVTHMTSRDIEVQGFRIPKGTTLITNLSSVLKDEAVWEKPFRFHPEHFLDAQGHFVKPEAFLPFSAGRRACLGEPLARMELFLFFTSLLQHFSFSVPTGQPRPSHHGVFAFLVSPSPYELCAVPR
T1 sequence (P08684 whole entry): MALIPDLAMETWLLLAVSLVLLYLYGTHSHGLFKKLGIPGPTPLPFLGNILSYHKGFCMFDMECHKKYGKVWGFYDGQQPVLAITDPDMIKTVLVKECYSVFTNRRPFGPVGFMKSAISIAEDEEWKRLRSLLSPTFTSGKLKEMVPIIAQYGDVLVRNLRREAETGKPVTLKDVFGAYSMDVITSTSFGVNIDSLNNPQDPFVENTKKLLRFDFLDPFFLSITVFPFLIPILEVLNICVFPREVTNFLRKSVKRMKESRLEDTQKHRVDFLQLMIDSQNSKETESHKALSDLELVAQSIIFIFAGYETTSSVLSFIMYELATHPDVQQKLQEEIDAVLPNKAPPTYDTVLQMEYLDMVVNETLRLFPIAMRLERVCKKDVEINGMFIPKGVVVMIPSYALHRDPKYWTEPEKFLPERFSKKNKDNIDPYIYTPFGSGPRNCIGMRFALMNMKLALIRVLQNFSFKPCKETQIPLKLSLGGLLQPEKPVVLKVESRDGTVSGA
T3 sequence (P11712 whole entry): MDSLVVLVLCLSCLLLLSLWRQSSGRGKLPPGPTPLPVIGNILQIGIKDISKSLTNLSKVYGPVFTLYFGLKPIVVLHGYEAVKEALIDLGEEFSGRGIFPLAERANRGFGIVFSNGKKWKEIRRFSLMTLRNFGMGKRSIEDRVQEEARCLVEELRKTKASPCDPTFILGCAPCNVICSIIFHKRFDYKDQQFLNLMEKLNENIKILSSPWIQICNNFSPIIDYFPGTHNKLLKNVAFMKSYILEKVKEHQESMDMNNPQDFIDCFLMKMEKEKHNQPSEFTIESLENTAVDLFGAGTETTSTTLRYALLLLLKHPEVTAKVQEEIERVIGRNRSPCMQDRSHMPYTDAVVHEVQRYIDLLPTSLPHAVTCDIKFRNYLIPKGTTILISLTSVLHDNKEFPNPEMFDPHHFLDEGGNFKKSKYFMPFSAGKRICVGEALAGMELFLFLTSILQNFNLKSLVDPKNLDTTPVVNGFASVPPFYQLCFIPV

IC50 [5] [µM]	IC50 (NCI-H28 (NF2 wide-type)) [µM]	Compound	IC50 [1] [µM]	IC50 [2] [µM]	IC50 [3] [µM]	IC50 [4] [µM]	IC50 [6] [µM]	AUC(0-t) (in vivo; 100 mg/kg) [µM·h]	AUC(0-t) (in vivo; 200 mg/kg) [µM·h]	Cmax (in vivo; 200 mg/kg) [µM]
–	–	CP(C)(=O)c1ccc2c(c1)c1ccccc1n2-c1ccc(C(F)(F)F)cc1 [Example 1]	> 10	> 10	> 10	> 10	–	–	–	–
> 20	> 1.25	CP(C)(=O)c1ccc2c(c1)c1cccnc1n2-c1ccc(C(F)(F)F)cc1 [Example 5]	–	–	–	–	> 5	–	–	–
–	–	CP(C)(=O)c1ccc2c(Oc3ccc(C(F)(F)F)cc3)cccc2c1 [Example 7]	> 10	> 10	> 10	> 10	–	2830	–	–
–	–	Cn1cnc(-c2cc(P(C)(C)=O)cnc2Nc2ccc(C(F)(F)F)cc2)c1 [Example 8]	> 10	> 10	> 10	> 10	–	–	2430	–
> 5	> 1.25	CP(C)(=O)c1ccc(Nc2ccc(C(F)(F)F)cc2)c(-c2ccccn2)c1 [Example 10]	–	–	–	–	> 1.25	–	3380	148
> 20	> 5	CP(C)(=O)c1ccc(Nc2ccc(C(F)(F)F)cc2)c(-c2ncccn2)c1 [Example 12]	–	–	–	–	> 20	–	–	–
–	–	Cn1cnc(-c2cc(P(C)(C)=O)ccc2Nc2ccc(C(F)(F)F)cc2)c1 [Example 14]	> 10	> 10	> 10	> 10	–	–	3140	141
–	–	CP(C)(=O)c1cnc(Nc2ccc(C(F)(F)F)cc2)c(-c2cn3c(n2)CCC3)c1 [Example 22]	> 10	> 10	> 10	> 10	–	–	2520	–
